Results on 37 molecules are retold here after US12582645B2, “Chemokine CXCR4 receptor modulators and uses related thereto” (Emory University, priority 2017, dated 2026).

One assay deals with T1, CXCR4 (Homo sapiens, UniProt P61073).
T1 construct: Human T lymphoblast cells (CCRF-CEM) expressing endogenous CXCR4 receptors; endogenous in cells; host or cells: CCRF-CEM (human T lymphoblast cells)
T1 sequence (P61073 whole entry): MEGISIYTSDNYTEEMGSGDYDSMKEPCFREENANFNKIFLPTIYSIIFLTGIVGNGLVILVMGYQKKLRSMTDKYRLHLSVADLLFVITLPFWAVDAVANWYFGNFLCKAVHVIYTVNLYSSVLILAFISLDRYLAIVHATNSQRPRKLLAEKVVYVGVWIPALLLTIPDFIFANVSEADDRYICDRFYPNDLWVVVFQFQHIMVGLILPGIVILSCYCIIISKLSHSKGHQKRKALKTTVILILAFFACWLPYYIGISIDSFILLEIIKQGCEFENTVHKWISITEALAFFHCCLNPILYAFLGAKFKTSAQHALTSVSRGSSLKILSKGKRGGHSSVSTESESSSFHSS
The experiment in a line: CXCR4-CEM calcium flux assay, antagonist mode (inhibition of SDF-1α-induced calcium flux). Particulars: CCRF-CEM cells expressing endogenous CXCR4, stimulated with 4 nM SDF-1α, read-out: CXCR4 Ca^2+ Flux IC50. Format: cell-based. As for the experimental part:
CXCR4-CEM Calcium Flux Assays
Exemplary compounds of the invention were tested for their ability to induce or inhibit calcium flux in CCRF-CEM cells, a human cell line that endogenously expresses CXCR4. Activation of CXCR4 stimulates G protein signaling which, in CCRF-CEM cells, causes a series of downstream events that leads to the release of intracellular calcium stores, or calcium flux. Calcium ion concentrations can be easily measured using a wide variety of […] calcium indicators and, as a result, calcium flux assays are commonly employed methods for measuring G protein-coupled receptor (GPCR) activity. Because the therapeutic potential of CXCR4 antagonists as anti-cancer agents likely relies on their ability to inhibit CXCR4-mediated G protein signaling, this assay was utilized as a first-pass measure of inhibitor potency.
The cells were then equilibrated to room temperature for 30 minutes before assay. […] For “antagonist mode” assessment, the cells are subsequently incubated for 25 minutes at room temperature. SDF-1α (R&D System Cat #350-NS/CF) was then added at a final concentration of 4 nM to stimulate the cells. Inhibition of SDF-1α-induced calcium flux was monitored by FDSS6000 for 90 seconds.
After correcting for background, EC50 values were determined. […] Inhibition data for the test compound over a range of concentrations was plotted as percentage inhibition of the test compound as compared to an internal control compound.
On to `Cc1ccc(CN(CCCN2CCNCC2)C[C@H]2Cc3ccccc3CN2)nc1` [EMU148, (R)—N-((5-methylpyridin-2-yl)methyl)-3-(piperazin-1-yl)-N-((1,2,3,4-tetrahydroisoquinolin-3-yl)methyl)propan-1-amine], for which the IC50 came out at 3100 nM.

For the molecule `Cc1cccnc1CN(CCCN1CCNCC1)C[C@H]1Cc2ccccc2CN1` [EMU149, (R)—N-((3-methylpyridin-2-yl)methyl)-3-(piperazin-1-yl)-N-((1,2,3,4-tetrahydroisoquinolin-3-yl)methyl)propan-1-amine], the IC50 came out at 92.1 nM.

With `CC1(C)CCC(NC/C=C/CN(C[C@H]2Cc3ccccc3CN2)[C@H]2CCCc3cccnc32)CC1` [EMU153, (E)-N1-(4,4-dimethylcyclohexyl)-N4-(((R)-1,2,3,4-tetrahydroisoquinolin-3-yl)methyl)-N4-((S)-5,6,7,8-tetrahydroquinolin-8-yl)but-2-ene-1,4-diamine], the IC50 was 64.6 nM.

Consider `FC1(F)CCC(NC/C=C/CN(C[C@H]2Cc3ccccc3CN2)[C@H]2CCCc3cccnc32)CC1` [EMU154, (E)-N1-(4,4-difluorocyclohexyl)-N4-(((R)-1,2,3,4-tetrahydroisoquinolin-3-yl)methyl)-N4-((S)-5,6,7,8-tetrahydroquinolin-8-yl)but-2-ene-1,4-diamine], for which the IC50 was found to be 82.1 nM.

With `C(=C\CN(C[C@H]1Cc2ccccc2CN1)[C@H]1CCCc2cccnc21)/CNC1CCOCC1` [EMU155, (E)-N1-(tetrahydro-2H-pyran-4-yl)-N4-(((R)-1,2,3,4-tetrahydroisoquinolin-3-yl)methyl)-N4-((S)-5,6,7,8-tetrahydroquinolin-8-yl)but-2-ene-1,4-diamine], the concentration for half-maximal inhibition (IC50) turned out to be 15.5 nM.

With `CN(C[C@H]1Cc2c(cccc2N2CCN3CCC[C@H]3C2)CN1)[C@H]1CCCc2cccnc21` [EMU160], the IC50 worked out at 2.92 nM.

`CC(C)N(C[C@H]1Cc2c(cccc2N2CCNCC2)CN1)[C@H]1CCCc2cccnc21` [EMU163]: the IC50 worked out at 364 nM.

Consider `Cc1cccnc1CN(CCCN1CCNCC1)C[C@H]1Cc2c(cccc2N2CCNCC2)CN1` [EMU164, (R)—N-((3-methylpyridin-2-yl)methyl)-3-(piperazin-1-yl)-N-((5-(piperazin-1-yl)-1,2,3,4-tetrahydroisoquinolin-3-yl)methyl)propan-1-amine], for which the IC50 was found to be 33.7 nM.

For `Cc1ccc(CN(CCCCN)C[C@H]2Cc3c(cccc3N3CCNCC3)CN2)nc1` [EMU165, (R)—N1-((5-methylpyridin-2-yl)methyl)-N1-((5-(piperazin-1-yl)-1,2,3,4-tetrahydroisoquinolin-3-yl)methyl)butane-1,4-diamine], the IC50 amounted to 115 nM.

Consider `Cc1cccnc1CN(CCCCN)C[C@H]1Cc2c(cccc2N2CCNCC2)CN1` [EMU166, (R)—N1-((3-methylpyridin-2-yl)methyl)-N1-((5-(piperazin-1-yl)-1,2,3,4-tetrahydroisoquinolin-3-yl)methyl)butane-1,4-diamine], for which the IC50 was 9.88 nM.

With `CN(C[C@H]1Cc2c(cccc2NCCN2CCOCC2)CN1)[C@H]1CCCc2cccnc21` [EMU173, (S)—N-methyl-N—(((R)-5-((2-morpholinoethyl)amino)-1,2,3,4-tetrahydroisoquinolin-3-yl)methyl)-5,6,7,8-tetrahydroquinolin-8-amine], the IC50 was found to be 21.5 nM.

For the molecule `C/C(=C/CN(C[C@H]1Cc2ccccc2CN1)[C@H]1CCCc2cccnc21)CN` [EMU177], the IC50 turned out to be 13.2 nM.

`C(=C\CN(C[C@H]1Cc2ccccc2CN1)[C@H]1CCCc2cccnc21)/CNCC1CCOCC1` [EMU180, (E)-N1-((tetrahydro-2H-pyran-4-yl)methyl)-N4-(((R)-1,2,3,4-tetrahydroisoquinolin-3-yl)methyl)-N4-((S)-5,6,7,8-tetrahydroquinolin-8-yl)but-2-ene-1,4-diamine]: the IC50 was determined as 24.2 nM.

For the molecule `CC1(C)CCC(NCc2ccc(CN(C[C@H]3Cc4ccccc4CN3)[C@H]3CCCc4cccnc43)cc2)CC1` [EMU181, (S)—N-(4-(((4,4-dimethylcyclohexyl)amino)methyl)benzyl)-N—(((R)-1,2,3,4-tetrahydroisoquinolin-3-yl)methyl)-5,6,7,8-tetrahydroquinolin-8-amine], the IC50 stood at 661 nM.

Consider `FC1(F)CCC(NCc2ccc(CN(C[C@H]3Cc4ccccc4CN3)[C@H]3CCCc4cccnc43)cc2)CC1` [EMU182, (S)—N-(4-(((4,4-difluorocyclohexyl)amino)methyl)benzyl)-N—(((R)-1,2,3,4-tetrahydroisoquinolin-3-yl)methyl)-5,6,7,8-tetrahydroquinolin-8-amine], for which the IC50 was 143 nM.

Take `CN(C[C@H]1Cc2c(cccc2N2CCN(C3COC3)CC2)CN1)[C@H]1CCCc2cccnc21` [EMU183]: the IC50 was 380 nM.

Turning to `c1cnc2c(c1)CCC[C@@H]2N(CCCN1CCNCC1)Cc1nc2ccccc2[nH]1` [EMU185, (S)—N-((1H-benzo[d]imidazole-2yl)methyl)-N-(3-(piperazine-1yl)propyl)-5,6,7,8-tetrahydroquinolin-8-amine], the IC50 turned out to be 45.3 nM.

Take `c1cnc2c(c1)CCC[C@@H]2N(CCCN1CCNCC1)Cc1nc2ccccc2s1` [EMU186, (S)—N-((1H-benzo[d]thiazol-2yl)methyl)-N-(3-(piperazine-1yl)propyl)-5,6,7,8-tetrahydroquinolin-8-amine]: the IC50 is 1200 nM.

Regarding `c1cnc(CN(CCCN2CCNCC2)[C@H]2CCCc3cccnc32)nc1` [EMU187, (S)—N-(3-(piperazin-1yl)propyl)-N-(pyrimidin-2ylmethyl)-5,6,7,8-tetrahydroquinolin-8-amine], the IC50 was 4320 nM.

Regarding `CN(C[C@H]1Cc2c(cccc2N2CCN(C3CC3)CC2)CN1)[C@H]1CCCc2cccnc21` [EMU196], the IC50 stood at 23.5 nM.

As for `CC(C)N1CCN(c2cccc3c2C[C@H](CN(C)[C@H]2CCCc4cccnc42)NC3)CC1` [EMU197], the IC50 was determined as 16.9 nM.

On to `C[C@@H]1CN(c2cccc3c2C[C@H](CN(C)[C@H]2CCCc4cccnc42)NC3)C[C@H](C)N1C` [EMU198], for which the IC50 was determined as 14.1 nM.

As for `CCN1CCN(c2cccc3c2C[C@H](CN(C)[C@H]2CCCc4cccnc42)NC3)CC1` [EMU199], the IC50 is 13.8 nM.

As to `CN(C[C@H]1Cc2c(cccc2N2C[C@H]3C[C@@H]2CN3)CN1)[C@H]1CCCc2cccnc21` [EMU200], the IC50 stood at 20.7 nM.

Consider `CN(C[C@H]1Cc2c(cccc2N2CCN(c3ncccn3)CC2)CN1)[C@H]1CCCc2cccnc21` [EMU203], for which the IC50 was 30.7 nM.

Take `C/C(=C/CN)CN(C[C@H]1Cc2ccccc2CN1)[C@H]1CCCc2cccnc21` [EMU208]: the IC50 worked out at 28.2 nM.

Regarding `NC(=O)NC/C=C\CN(C[C@H]1Cc2ccccc2CN1)[C@H]1CCCc2cccnc21` [EMU211], the IC50 turned out to be 207 nM.

On to `c1ccc2c(c1)CN[C@@H](CN(Cc1ccc(CNC3CCOCC3)cc1)[C@H]1CCCc3cccnc31)C2` [EMU217, (S)—N-(4-(((tetrahydro-2H-pyran-4-yl)amino)methyl)benzyl)-N—(((R)-1,2,3,4-tetrahydroisoquinolin-3-yl)methyl)-5,6,7,8-tetrahydroquinolin-8-amine], for which the IC50 came to 90.3 nM.

In the case of `c1ccc2c(c1)CN[C@@H](CN(Cc1ccc(CNCc3ccncc3)cc1)[C@H]1CCCc3cccnc31)C2` [EMU218, (S)—N-(4-(((pyridin-4-ylmethyl)amino)methyl)benzyl)-N—(((R)-1,2,3,4-tetrahydroisoquinolin-3-yl)methyl)-5,6,7,8-tetrahydroquinolin-8-amine], the IC50 amounted to 134 nM.

With `c1ccc(CNCc2ccc(CN(C[C@H]3Cc4ccccc4CN3)[C@H]3CCCc4cccnc43)cc2)nc1` [EMU220, (S)—N-(4-(((pyridin-2-ylmethyl)amino)methyl)benzyl)-N—(((R)-1,2,3,4-tetrahydroisoquinolin-3-yl)methyl)-5,6,7,8-tetrahydroquinolin-8-amine], the IC50 was found to be 286 nM.

For the molecule `C(=C\CN(C[C@H]1Cc2ccccc2CN1)[C@H]1CCCc2cccnc21)/CNCc1cccnc1` [EMU222, (E)-N1-(pyridin-3-ylmethyl)-N4-(((R)-1,2,3,4-tetrahydroisoquinolin-3-yl)methyl)-N4-((S)-5,6,7,8-tetrahydroquinolin-8-yl)but-2-ene-1,4-diamine], the 50% inhibitory concentration (IC50) worked out at 92.8 nM.

As for `C(=C\CN(C[C@H]1Cc2ccccc2CN1)[C@H]1CCCc2cccnc21)/CNCc1ccccn1` [EMU223, (E)-N1-(pyridin-2-ylmethyl)-N4-(((R)-1,2,3,4-tetrahydroisoquinolin-3-yl)methyl)-N4-((S)-5,6,7,8-tetrahydroquinolin-8-yl)but-2-ene-1,4-diamine], the IC50 is 58.3 nM.

For the molecule `CN(C[C@H]1Cc2c(cccc2N2CCN(c3cccc(C(F)(F)F)c3)CC2)CN1)[C@H]1CCCc2cccnc21` [EMU226], the IC50 is more than 16700 nM.

`CN1C[C@@H]2CN(c3cccc4c3C[C@H](CN(C)C3CCCc5cccnc53)NC4)C[C@@H]2C1` (stereo partly shown) [EMU227]: the half-inhibitory concentration (IC50) is 9.56 nM.

Take `CN(C)C1CCN(c2cccc3c2C[C@H](CN(C)[C@H]2CCCc4cccnc42)NC3)CC1` [EMU228]: the IC50 worked out at 35.9 nM.

With `CN1CCN(Nc2cccc3c2C[C@H](CN(C)[C@H]2CCCc4cccnc42)NC3)CC1` [EMU229], the IC50 came to 47.4 nM.

The same assay, now with this note: CXCR4 Ca^2+ Flux IC50, CCRF-CEM cells expressing endogenous CXCR4, stimulated with 4 nM SDF-1α.
As for `c1cnc2c(c1)CCC[C@@H]2N(CCCN1CCNCC1)Cc1cc2ccccc2cn1` [EMU168], the IC50 was 17.3 nM.
